Paper PMC10447463, “Data-mining unveils structure–property–activity correlation of viral infectivity enhancing self-assembling peptides” (Nature Communications, 2023)
Values joined by “and” are separate entries in the source; they are usually repeats but may differ in a detail not shown here. Identical values can stand only once. Like-named read-outs stand apart in the source and are kept apart here.

Experiments:
[1] = Turbidity, derived count rate of scattered light; assay type: physicochemical; conditions: for Count Rate / kcps: derived count rate of scattered light at 633 nm, 173°, from zeta-potential measurement, 0.1 mg/mL in 1 mM KCl after 1 d at 1 mg/mL in PBS, turbidity / microscopic aggregation, mean of triplicate; for Zeta Count Rate: peptides with TEM 2cat 0
Outline: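 One-day room-temperature aggregation at 1 mg/mL in PBS (pH 7.4) preceded measurement; samples then went into 1 mM KCl. Triplicates per sample, two independent experiments averaged.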

[2] = Turbidity, derived count rate of scattered light; assay type: physicochemical; conditions: for Count Rate: derived count rate of scattered light (turbidity); for Log10 Count Rate: turbidity, derived count rate of scattered light, data of Figure 2D
[3] = tested on: HIV-1 infection of TZM-bl cells; experiment: HIV-1 infectivity enhancement assay, β-galactosidase luminescence; assay type: cell-based; conditions: for Rel-EFC: infection relative to EF-C (QCKIKQIINMWQ = 1); for Log10 Infection Rel EFC: log10 of infection relative to EF-C; for Log Infectivity: Log10 infection relative to EF-C, asymmetric std dev errors; for Log10 Infection Rel EF-C: HIV-1 infection of TZM-bl cells; for Log10 of Rel to EFC (Feb2021): Log10 of infection relative to EF-C; for Abs. Inf.: β-galactosidase luminescence; for Log10 Inf. rel. to EF-C: log10 of HIV-1 infection of TZM-bl cells relative to EF-C (EF-C = 0)
[4] = Zeta-potential measurement; assay type: physicochemical
Outline: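 Charge on peptide aggregates was assessed by electrophoretic mobility in 1 mM KCl, converted per Smoluchowski. Prior aggregation: 1 mg/mL, pH 7.4 PBS, 1 d, RT.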

[5] = β-sheet content by ATR-FT-IR; assay type: physicochemical; conditions: for b -sheet / %: Fig. S7 panel A, β-sheet content by ATR-FT-IR; for beta sheet: peptides with TEM 2cat 0
Outline: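 Lyophilized PNF (from 1 mg/mL) scanned 64× on diamond ATR, 2 cm^-1 resolution; β-sheet content per earlier report. CR: spin through 3 kDa MWCO, 16200 x g, 4 °C, 45 min; lyophilize filtrate + unfiltered; DMSO; fluorescamine 20 min RT; ex 365/em 470.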

[6] = Log10 of derived count rate of scattered light (turbidity)
[7] = log10 of derived count rate of scattered light (turbidity)
[8] = turbidity, Log10 of derived count rate of scattered light, Figure 3A source data
[9] = Fig. S7 panel A (plotted against β-sheet content), TZM-bl cells
[10] = Fig. S7 panel B (plotted against CR), rounded to two decimals, TZM-bl cells
[11] = Log10 of infection rate relative to EF-C, Figure 3A source data
[12] = infection rate relative to EF-C, log10, data of Figure 2D
[13] = infection rate relative to EF-C, log10, source data of Figure 2C
[14] = zeta potential of peptide assemblies
[15] = zeta-potential of peptide, source data of Figure 2C
[16] = zeta-potential of the peptide assemblies, mean, Figure 3A source data
[17] = absolute HIV-1 infection signal, TZM-bl cells
[18] = turbidity, log10 of derived count rate of scattered light
[19] = absolute infection signal, HIV-1 on TZM-bl cells
[20] = second listing, peptides with TEM 2cat 0

Substance | Log10 Count Rate [1, 6] | Count Rate / kcps [1] | Log10 Count Rate [1, 7] | Log10 Count Rate [1, 8] | Count Rate [2] | Log10 Count Rate [2] | Rel-EFC ([3]; 1.3 µM peptide) | Log10 Infection Rel EFC ([3]; 1.3 µM peptide) | Log Infectivity [3, 9] | Log Infectivity [3, 10] | Log10 Infection Rel EF-C [3, 11] | Log10 Infection Rel EF-C [3, 12] | Log10 Infection Rel EF-C [3, 13] | Log10 of Rel to EFC (Feb2021) ([3]; all peptides of FigS16) | Zeta-Pot. [4, 14] | Zeta-Potential / mV [4, 15] [mV] | Zeta-Potential / mV [4, 16] [mV] | b -sheet / % [5] [%] | Abs. Inf. [3, 17] | Zeta-Pot. [4] | also measured
CKIKIQIRGD | 3.762 | 5777 kcps | 3.762 | 3.762 | 5777 | 3.762 | 0,33 | -0,48 | -0.4842 | -0.48 | -0.48 | -0.4842 | -0.4842 | -0.48 | 7.157 | 7.157 | 7.16 | 58.14 |  |  | 
CEIEIQINMWQ | 3.196 | 1570 kcps | 3.196 | 3.196 | 1570 | 3.196 | 0,22 | -0,66 | -0.6602 | -0.66 | -0.66 | -0.6602 | -0.6602 | -0.66 | -25.8 | -26.07 | -25.8 | 49.9 |  |  | 
KFKFKFQF | 3.015 | 1036 kcps | 3.015 | 3.015 | 1036 | 3.015 | 0,8 | -0,1 | -0.09726 | -0.1 | -0.1 | -0.09726 | -0.09726 | -0.1 | 15.2 | 16.32 | 15.2 | 39.76 |  |  | 
KFKQFFINMWQ | 3.954 | 8996 kcps | 3.954 | 3.954 | 8996 | 3.954 | 0,92 | -0,04 | -0.03603 |  | -0.04 | -0.03603 | -0.03603 | -0.04 |  | 10.28 | 7.99 | 38.37 | 14953.33333 | 7.99 | 
QCKFKQFF | 2.353 | 225 kcps |  | 2.353 | 225.4 | 2.353 | 0,01 | -1,91 | -1.907 |  | -1.91 | -1.907 | -1.907 |  |  | 3.089 | 4.94 | 32.34 |  | 4.94 | Log10 Count Rate [1, 18]: 2.353; Abs. Inf. [3, 19]: 170; Log10 Inf. rel. to EF-C [3]: -1.907
CKIKIQINM | 3.626 | 4228 kcps | 3.626 | 3.626 | 4228 | 3.626 | 1,59 | 0,2 | 0.2012 | 0.2 | 0.2 | 0.2012 | 0.2012 | 0.2 | 16.83 | 14.3 | 16.83 | 42.84 |  |  | 
QCKFKQFFNMWQ | 4.277 | 18911 kcps |  | 4.277 | 18911.36667 | 4.277 | 0,01 | -2,18 | -0.6059 | -0.61 | -0.61 | -0.6059 | -0.61 | -0.61 |  | 11.04 | 9.59 | 41.78 |  | 9.587 | Log10 Count Rate [1, 18]: 4.277; Abs. Inf. [3, 19]: 30896.66667; Log10 Inf. rel. to EF-C [3]: -0.6059
KIKIQIMQWN | 3.343 | 2203 kcps | 3.343 | 3.343 | 2202.7 | 3.343 | 0,72 | -0,15 | -0.1454 |  | -0.15 | -0.1454 | -0.1454 | -0.15 |  | 8.94 | 9.44 | 40.38 | 11623.33333 | 9.44 | 
EIEIQINMWQ | 3.102 | 1264 kcps | 3.102 | 3.102 | 1264 | 3.102 | 0,13 | -0,88 | -0.881 | -0.88 | -0.88 | -0.881 | -0.881 | -0.88 |  | -19.93 | -19.13 | 53.91 | 2137 | -19.13 | Zeta Count Rate [1]: 1264 kcp; infectivity enhancement relative to EF-C ([3]; 1.3 µM peptide): 13%; Log10 of Rel to EFC (Feb2021) [3, 20]: -0.88; beta sheet [5]: 54
CKFKQFFNM | 4.436 | 27264 ± 5488 kcps and 27264 kcps |  | 4.436 | 27264.3 | 4.436 | 0,41 | -0,39 | -0.3892 |  | -0.39 | -0.3892 | -0.3892 | -0.39 |  | 15.05 | 15.2 | 41.58 |  | 15.2 | Log10 Count Rate ([1]; logarithm of count rate in kcps): 4.436; Log10 Count Rate [1, 18]: 4.436; Abs. Inf. [3, 19]: 15720; Log10 Inf. rel. to EF-C [3]: -0.3892
KIKIQINMWWQ | 3.59 | 3893 kcps | 3.59 | 3.59 | 3893 | 3.59 | 3,21 | 0,51 | 0.5063 |  | 0.51 | 0.5063 | 0.5063 | 0.51 |  | 13.17 | 11.8 | 50.48 | 17976.66667 | 11.8 | Zeta Count Rate [1]: 3893 kcp; Log10 of Rel to EFC (Feb2021) [3, 20]: 0.51; beta sheet [5]: 50
KLKLQLL | 1.861 | 73 kcps | 1.861 | 1.861 | 72.67 | 1.861 | 0,01 | -2,16 | -2.156 |  | -2.16 | -2.156 | -2.156 |  | -4.93 | -3.1875 | -4.93 | 39.56 |  |  | 
